Experimental data: patent US8883963B2 (Cadila Healthcare Limited, priority 2007, dated 2014)

Key:
[1] = system: RIN5F (Rat Insulinoma) cells; test: In vitro glucose-dependent insulin secretion (RIN5F cell assay screening protocol); type: cell-based; conditions: 16.7 mM glucose load
Human GLP-1 receptor = target: T1, Human GLP-1 receptor (Homo sapiens, UniProt P43220); test: In vitro Human GLP-1 R agonist activity (cyclic AMP determination) in CHO/human GLP1R cells; type: cell-based
T1 construct: The full-length cDNA was cloned in pcDNA3.1(+); expressed in transfected cells
T1 sequence (P43220 24-463): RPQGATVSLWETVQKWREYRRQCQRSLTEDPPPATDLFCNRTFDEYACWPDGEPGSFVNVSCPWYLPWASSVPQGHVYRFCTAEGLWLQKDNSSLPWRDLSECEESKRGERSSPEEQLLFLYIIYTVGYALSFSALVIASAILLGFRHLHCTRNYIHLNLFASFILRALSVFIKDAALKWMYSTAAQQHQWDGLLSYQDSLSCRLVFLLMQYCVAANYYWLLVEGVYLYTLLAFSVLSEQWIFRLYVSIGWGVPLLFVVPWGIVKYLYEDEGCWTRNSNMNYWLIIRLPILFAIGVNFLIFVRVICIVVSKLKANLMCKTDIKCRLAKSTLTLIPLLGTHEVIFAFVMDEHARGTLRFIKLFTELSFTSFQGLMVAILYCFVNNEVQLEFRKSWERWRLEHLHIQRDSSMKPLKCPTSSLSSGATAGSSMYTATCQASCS

human glucagon receptor = target: T2, human glucagon receptor (Homo sapiens, UniProt P47871); test: In vitro human glucagon antagonist activity (inhibition of cAMP production) in CHO/human glucagon R cells; type: cell-based; conditions: with saturated concentration of glucagon peptide
T2 construct: The full-length cDNA was cloned in pcDNA3.1 (Invitrogen); expressed in transfected cells
T2 sequence (P47871 26-477): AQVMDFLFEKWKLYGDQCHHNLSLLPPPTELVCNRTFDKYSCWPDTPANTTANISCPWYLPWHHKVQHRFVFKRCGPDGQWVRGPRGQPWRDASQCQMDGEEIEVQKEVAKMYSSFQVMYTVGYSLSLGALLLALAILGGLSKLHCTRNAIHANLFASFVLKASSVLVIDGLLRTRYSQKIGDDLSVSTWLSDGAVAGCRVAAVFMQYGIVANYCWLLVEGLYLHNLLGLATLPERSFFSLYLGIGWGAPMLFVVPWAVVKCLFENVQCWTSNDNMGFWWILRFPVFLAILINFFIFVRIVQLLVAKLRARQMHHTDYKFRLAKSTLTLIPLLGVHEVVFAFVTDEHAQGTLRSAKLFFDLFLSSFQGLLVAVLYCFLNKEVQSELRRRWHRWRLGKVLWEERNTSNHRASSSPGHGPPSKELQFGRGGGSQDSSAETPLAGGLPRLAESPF

DPP IV = DPP IV (Homo sapiens, UniProt P27487); test: Stability against DPP IV enzyme; type: in vitro ADME; conditions: 37° C.; for % degradation of peptidomimetics in 24 h when incubated with DPP-IV enzyme: 2 μM peptidomimetic; for half-life at 2 μM: DPP IV enzyme, pH 7.8, 2 μM peptidomimetic, read-out: half-life (t1/2) when incubated with DPP-IV enzyme
DPP IV, sequence (P27487 whole entry, species assumed): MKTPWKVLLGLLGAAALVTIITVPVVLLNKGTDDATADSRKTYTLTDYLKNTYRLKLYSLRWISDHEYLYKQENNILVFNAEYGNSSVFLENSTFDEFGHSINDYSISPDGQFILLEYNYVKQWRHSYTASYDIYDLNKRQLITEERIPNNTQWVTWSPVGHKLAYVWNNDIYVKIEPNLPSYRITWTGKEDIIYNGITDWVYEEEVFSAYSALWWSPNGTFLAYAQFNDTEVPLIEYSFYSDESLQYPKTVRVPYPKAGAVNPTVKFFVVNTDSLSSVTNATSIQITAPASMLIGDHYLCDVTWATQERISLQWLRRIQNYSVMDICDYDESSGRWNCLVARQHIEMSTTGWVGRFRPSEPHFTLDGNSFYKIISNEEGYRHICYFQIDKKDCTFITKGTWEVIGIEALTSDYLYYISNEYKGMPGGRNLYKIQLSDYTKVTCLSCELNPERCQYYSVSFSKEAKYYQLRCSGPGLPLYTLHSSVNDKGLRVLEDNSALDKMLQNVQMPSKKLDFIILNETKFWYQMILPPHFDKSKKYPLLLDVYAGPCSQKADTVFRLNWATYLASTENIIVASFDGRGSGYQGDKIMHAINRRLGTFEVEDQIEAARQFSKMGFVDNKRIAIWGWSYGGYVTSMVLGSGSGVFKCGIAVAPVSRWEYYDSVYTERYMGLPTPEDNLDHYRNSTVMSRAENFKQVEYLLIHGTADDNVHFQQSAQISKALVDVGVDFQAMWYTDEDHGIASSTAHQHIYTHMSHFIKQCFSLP
Protocol: (§1) Reactions were terminated by the addition of TFA/H2O (15 mL, 10% (v/v)). […] The column was equilibrated with TFA/H20, at a flow rate of 1 mL/min.

[2] = Stability in human plasma; type: in vitro ADME; conditions: 2 μM peptidomimetic, pooled human plasma, 37° C.; for half-life at 2 μM: pH 7.8, read-out: half-life (t1/2) when incubated with human plasma
Protocol: as §1

[3] = Stability in simulated gastric fluid; type: in vitro ADME; conditions: 2 μM peptidomimetic, simulated gastric fluid pH 1.5, 37° C.; for half-life at 2 μM: read-out: half-life (t1/2) when incubated with simulated gastric fluid
Protocol: as §1

[4] = Stability in simulated intestinal fluid; type: in vitro ADME; conditions: 2 μM peptidomimetic, simulated intestinal fluid pH 7.5, 37° C.; for half-life at 2 μM: read-out: half-life (t1/2) when incubated with simulated intestinal fluid
Protocol: as §1

[5] = Stability in liver microsomes; type: in vitro ADME; conditions: 2 μM peptidomimetic, human liver microsomes, 37° C.; for half-life at 2 μM: pH 7.8, read-out: half-life (t1/2) when incubated with liver microsomes
Protocol: as §1

CCc1cc(OC)ccc1-c1ccc(CC(NC(=O)[C@H](CC(=O)O)NC(=O)[C@H](CO)NC(=O)[C@@H](NC(=O)[C@H](Cc2ccccc2)NC(=O)[C@@H](NC(=O)CNC(=O)C(CCC#N)NC(=O)C(C)(C)NC(=O)[C@@H](N)Cc2c[nH]cn2)[C@@H](C)O)[C@@H](C)O)C(=O)NC(CCCc2ccccc2)C(N)=O)cc1 (single isomer, unassigned) [compound 29]
Insulin secretion ([1]; 0.1 nM test compd.): 16.3 ± 0.15 pg/µg/h
Insulin secretion ([1]; 1 nM test compd.): 22.4 ± 0.21 pg/µg/h
Insulin secretion ([1]; 10 nM test compd.): 36.2 ± 0.11 pg/µg/h
Human GLP-1 R activity (cAMP release), % activity with respect to control (Human GLP-1 receptor; 1 nM test compound): 96 ± 0.09%
Human GLP-1 R activity (cAMP release), % activity with respect to control (Human GLP-1 receptor; 10 nM test compound): 99 ± 0.07%
Human GLP-1 R activity (cAMP release), % activity with respect to control (Human GLP-1 receptor; 100 nM test compound): 99 ± 0.04%
Human GLP-1 R activity (cAMP release), % activity with respect to control (Human GLP-1 receptor; 1 μM test compound): 99 ± 0.01%
Human GLP-1 R activity (cAMP release), % activity with respect to control (Human GLP-1 receptor; 10 μM test compound): 99 ± 0.08%
Human Glucagon receptor antagonistic activity shown as inhibition of cAMP production of Glucagon peptide (human glucagon receptor; 1 nM test compound): 20 ± 0.06 pmol/ml/μg prt
Human Glucagon receptor antagonistic activity shown as inhibition of cAMP production of Glucagon peptide (human glucagon receptor; 10 nM test compound): 18 ± 0.09 pmol/ml/μg prt
Human Glucagon receptor antagonistic activity shown as inhibition of cAMP production of Glucagon peptide (human glucagon receptor; 100 nM test compound): 16 ± 0.01 pmol/ml/μg prt
Human Glucagon receptor antagonistic activity shown as inhibition of cAMP production of Glucagon peptide (human glucagon receptor; 1 μM test compound): 14 ± 0.03 pmol/ml/μg prt
Human Glucagon receptor antagonistic activity shown as inhibition of cAMP production of Glucagon peptide (human glucagon receptor; 10 μM test compound): 12 ± 0.01 pmol/ml/μg prt
% degradation of peptidomimetics in 24 h when incubated with DPP-IV enzyme (DPP IV): 00%
half-life at 2 μM (DPP IV): > 24 h
% degradation of peptidomimetics in 24 h when incubated with human plasma [2]: 00%
half-life at 2 μM [2]: > 24 h
% degradation of peptidomimetics in 24 h when incubated with simulated gastric fluid [3]: 00%
half-life at 2 μM [3]: > 24 h
% degradation of peptidomimetics in 24 h when incubated with simulated intestinal fluid [4]: 00%
half-life at 2 μM [4]: > 24 h
half-life (t1/2) when incubated with liver microsomes [5]: (5) h
% degradation of peptidomimetics in 24 h when incubated with liver microsomes [5]: 32%

CCc1cc(OC)ccc1-c1ccc(CC(NC(=O)[C@H](CC(=O)O)NC(=O)[C@H](CO)NC(=O)[C@@H](NC(=O)[C@H](Cc2ccccc2)NC(=O)[C@@H](NC(=O)CNC(=O)C(CCC#N)NC(=O)C(C)(C)NC(=O)[C@@H](N)Cc2c[nH]cn2)[C@@H](C)O)[C@@H](C)O)C(=O)NC(CCCc2cc(C)cc(C)c2)C(N)=O)cc1 (single isomer, unassigned) [compound 30]
Insulin secretion ([1]; 0.1 nM test compd.): 17.1 ± 0.11 pg/µg/h
Insulin secretion ([1]; 1 nM test compd.): 23.1 ± 0.16 pg/µg/h
Insulin secretion ([1]; 10 nM test compd.): 37.0 ± 0.29 pg/µg/h
Human GLP-1 R activity (cAMP release), % activity with respect to control (Human GLP-1 receptor; 1 nM test compound): 38 ± 0.12%
Human GLP-1 R activity (cAMP release), % activity with respect to control (Human GLP-1 receptor; 10 nM test compound): 78 ± 0.15%
Human GLP-1 R activity (cAMP release), % activity with respect to control (Human GLP-1 receptor; 100 nM test compound): 86 ± 0.18%
Human GLP-1 R activity (cAMP release), % activity with respect to control (Human GLP-1 receptor; 1 μM test compound): 95 ± 0.03%
Human GLP-1 R activity (cAMP release), % activity with respect to control (Human GLP-1 receptor; 10 μM test compound): 98 ± 0.09%
Human Glucagon receptor antagonistic activity shown as inhibition of cAMP production of Glucagon peptide (human glucagon receptor; 1 nM test compound): 22 ± 0.03 pmol/ml/μg prt
Human Glucagon receptor antagonistic activity shown as inhibition of cAMP production of Glucagon peptide (human glucagon receptor; 10 nM test compound): 21 ± 0.05 pmol/ml/μg prt
Human Glucagon receptor antagonistic activity shown as inhibition of cAMP production of Glucagon peptide (human glucagon receptor; 100 nM test compound): 20 ± 0.07 pmol/ml/μg prt
Human Glucagon receptor antagonistic activity shown as inhibition of cAMP production of Glucagon peptide (human glucagon receptor; 1 μM test compound): 18 ± 0.04 pmol/ml/μg prt
Human Glucagon receptor antagonistic activity shown as inhibition of cAMP production of Glucagon peptide (human glucagon receptor; 10 μM test compound): 18 ± 0.03 pmol/ml/μg prt
% degradation of peptidomimetics in 24 h when incubated with DPP-IV enzyme (DPP IV): 00%
half-life at 2 μM (DPP IV): > 24 h
% degradation of peptidomimetics in 24 h when incubated with human plasma [2]: 00%
half-life at 2 μM [2]: > 24 h
% degradation of peptidomimetics in 24 h when incubated with simulated gastric fluid [3]: 00%
half-life at 2 μM [3]: > 24 h
% degradation of peptidomimetics in 24 h when incubated with simulated intestinal fluid [4]: 00%
half-life at 2 μM [4]: > 24 h
half-life (t1/2) when incubated with liver microsomes [5]: (5) h
% degradation of peptidomimetics in 24 h when incubated with liver microsomes [5]: 33%

CCc1cc(OC)ccc1-c1ccc(CC(NC(=O)[C@H](CC(=O)O)NC(=O)[C@H](CO)NC(=O)[C@@H](NC(=O)[C@H](Cc2ccccc2)NC(=O)[C@@H](NC(=O)CNC(=O)C(CCC#N)NC(=O)C(C)(C)NC(=O)[C@@H](N)Cc2c[nH]cn2)[C@@H](C)O)[C@@H](C)O)C(=O)NC(CCCc2ccccc2Cl)C(N)=O)cc1 (single isomer, unassigned) [compound 82]
Insulin secretion ([1]; 0.1 nM test compd.): 16.9 ± 0.22 pg/µg/h
Insulin secretion ([1]; 1 nM test compd.): 22.8 ± 0.31 pg/µg/h
Insulin secretion ([1]; 10 nM test compd.): 36.7 ± 0.34 pg/µg/h
Human GLP-1 R activity (cAMP release), % activity with respect to control (Human GLP-1 receptor; 1 nM test compound): 78 ± 0.12%
Human GLP-1 R activity (cAMP release), % activity with respect to control (Human GLP-1 receptor; 10 nM test compound): 99 ± 0.15%
Human GLP-1 R activity (cAMP release), % activity with respect to control (Human GLP-1 receptor; 100 nM test compound): 99 ± 0.18%
Human GLP-1 R activity (cAMP release), % activity with respect to control (Human GLP-1 receptor; 1 μM test compound): 99 ± 0.03%
Human GLP-1 R activity (cAMP release), % activity with respect to control (Human GLP-1 receptor; 10 μM test compound): 99 ± 0.09%
% degradation of peptidomimetics in 24 h when incubated with DPP-IV enzyme (DPP IV): 00%
half-life at 2 μM (DPP IV): > 24 h
% degradation of peptidomimetics in 24 h when incubated with human plasma [2]: 00%
half-life at 2 μM [2]: > 24 h
% degradation of peptidomimetics in 24 h when incubated with simulated gastric fluid [3]: 55%
half-life at 2 μM [3]: 4 h
% degradation of peptidomimetics in 24 h when incubated with simulated intestinal fluid [4]: 00%
half-life at 2 μM [4]: > 24 h
% degradation of peptidomimetics in 24 h when incubated with liver microsomes [5]: 84%
half-life at 2 μM [5]: 2 h

CCc1cc(OC)ccc1-c1ccc(CC(NC(=O)[C@H](CC(=O)O)NC(=O)[C@H](CO)NC(=O)[C@@H](NC(=O)C(C)(Cc2ccccc2F)NC(=O)[C@@H](NC(=O)CNC(=O)[C@H](CC(C(F)(F)F)C(F)(F)F)NC(=O)C(C)(C)NC(=O)[C@H](Cc2c[nH]cn2)NC(C)=O)[C@@H](C)O)[C@@H](C)O)C(=O)NC(CCCc2ccccc2)C(N)=O)cc1 (single isomer, unassigned) [compound 210]
Insulin secretion ([1]; 0.1 nM test compd.): 11.9 ± 0.17 pg/µg/h
Insulin secretion ([1]; 1 nM test compd.): 14.2 ± 0.13 pg/µg/h
Insulin secretion ([1]; 10 nM test compd.): 27.6 ± 0.16 pg/µg/h
Human GLP-1 R activity (cAMP release), % activity with respect to control (Human GLP-1 receptor; 1 nM test compound): 46 ± 0.022%
Human GLP-1 R activity (cAMP release), % activity with respect to control (Human GLP-1 receptor; 10 nM test compound): 85 ± 0.46%
Human GLP-1 R activity (cAMP release), % activity with respect to control (Human GLP-1 receptor; 100 nM test compound): 90 ± 0.41%
Human GLP-1 R activity (cAMP release), % activity with respect to control (Human GLP-1 receptor; 1 μM test compound): 99 ± 0.66%
Human GLP-1 R activity (cAMP release), % activity with respect to control (Human GLP-1 receptor; 10 μM test compound): 99 ± 0.03%
% degradation of peptidomimetics in 24 h when incubated with DPP-IV enzyme (DPP IV): 75%
half-life (t1/2) when incubated with human plasma [2]: (9) h
% degradation of peptidomimetics in 24 h when incubated with human plasma [2]: 77%
% degradation of peptidomimetics in 24 h when incubated with simulated gastric fluid [3]: 100%
half-life at 2 μM [3]: 0.5 h
% degradation of peptidomimetics in 24 h when incubated with simulated intestinal fluid [4]: 100%
half-life at 2 μM [4]: 0.5 h
% degradation of peptidomimetics in 24 h when incubated with liver microsomes [5]: 100%
half-life at 2 μM [5]: 0.5 h

CCc1cc(OC)ccc1-c1ccc(CC(NC(=O)[C@H](CC(=O)O)NC(=O)[C@H](CO)NC(=O)[C@@H](NC(=O)C(C)(Cc2ccccc2)NC(=O)[C@@H](NC(=O)CNC(=O)[C@H](CC(C(F)(F)F)C(F)(F)F)NC(=O)C(C)(C)NC(=O)[C@@H](N)Cc2c[nH]cn2)[C@@H](C)O)[C@@H](C)O)C(=O)NC(CCCc2ccccc2)C(N)=O)cc1 (single isomer, unassigned) [compound 230]
Insulin secretion ([1]; 0.1 nM test compd.): 12.1 ± 0.51 pg/µg/h
Insulin secretion ([1]; 1 nM test compd.): 14.1 ± 0.19 pg/µg/h
Insulin secretion ([1]; 10 nM test compd.): 28.1 ± 0.29 pg/µg/h
Human GLP-1 R activity (cAMP release), % activity with respect to control (Human GLP-1 receptor; 1 nM test compound): 99 ± 0.12%
Human GLP-1 R activity (cAMP release), % activity with respect to control (Human GLP-1 receptor; 10 nM test compound): 99 ± 0.08%
Human GLP-1 R activity (cAMP release), % activity with respect to control (Human GLP-1 receptor; 100 nM test compound): 99 ± 0.11%
Human GLP-1 R activity (cAMP release), % activity with respect to control (Human GLP-1 receptor; 1 μM test compound): 99 ± 0.12%
Human GLP-1 R activity (cAMP release), % activity with respect to control (Human GLP-1 receptor; 10 μM test compound): 99 ± 0.16%
% degradation of peptidomimetics in 24 h when incubated with DPP-IV enzyme (DPP IV): 86%
half-life (t1/2) when incubated with human plasma [2]: (9) h
% degradation of peptidomimetics in 24 h when incubated with human plasma [2]: 70%
% degradation of peptidomimetics in 24 h when incubated with simulated gastric fluid [3]: 100%
half-life at 2 μM [3]: 0.5 h
% degradation of peptidomimetics in 24 h when incubated with simulated intestinal fluid [4]: 100 ) %
half-life at 2 μM [4]: 0.5 h
% degradation of peptidomimetics in 24 h when incubated with liver microsomes [5]: 100%
half-life at 2 μM [5]: 0.5 h
